Data taken from PubChem BioAssay (NCI).
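In this assay, cells in 96-well plates receive the compound at five concentrations for 48 hours. Endpoints are linearly interpolated between the surrounding concentrations. The concentration for full growth arrest is given as TGI.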

Columns and labels:
Assay in all cases: NCI anticancer screen, dose series, 48 h
[1] = test system: 786-0 renal
[2] = test system: A549 NSCLC
[3] = test system: ACHN renal
[4] = test system: BT-549 breast
[5] = test system: CAKI-1 renal
[6] = test system: CCRF-CEM leukemia
[7] = test system: COLO 205 colon
[8] = test system: DU-145 prostate
[9] = test system: EKVX NSCLC
[10] = test system: HCC-2998 colon
[11] = test system: HCT-116 colon
[12] = test system: HCT-15 colon
[13] = test system: HL-60(TB) leukemia
[14] = test system: HOP-62 NSCLC
[15] = test system: HOP-92 NSCLC
[16] = test system: HS 578T breast
[17] = test system: HT29 colon
[18] = test system: IGROV1 ovarian
[19] = test system: K-562 leukemia
[20] = test system: KM12 colon
[21] = test system: LOX IMVI melanoma
[22] = test system: M14 melanoma
[23] = test system: MALME-3M melanoma
[24] = test system: MCF7 breast
[25] = test system: MDA-MB-231 breast
[26] = test system: MDA-MB-435
[27] = test system: NCI-H23 lung
[28] = test system: NCI-H460 lung
[29] = test system: NCI-H522 lung
[30] = test system: NCI/ADR-RES ovarian
[31] = test system: OVCAR-3 ovarian
[32] = test system: OVCAR-5 ovarian
[33] = test system: OVCAR-8 ovarian
[34] = test system: PC-3 prostate
[35] = test system: RPMI-8226 leukemia
[36] = test system: RXF 393 renal
[37] = test system: SF-268 CNS
[38] = test system: SF-295 CNS
[39] = test system: SF-539 CNS
[40] = test system: SK-MEL-2 melanoma
[41] = test system: SK-MEL-28 melanoma
[42] = test system: SK-MEL-5 melanoma
[43] = test system: SN12C renal
[44] = test system: SNB-19 CNS
[45] = test system: SR leukemia
[46] = test system: SW-620 colon
[47] = test system: TK-10 renal
[48] = test system: U251 CNS
[49] = test system: UACC-257 melanoma
[50] = test system: UACC-62 melanoma
[51] = test system: UO-31 renal
[52] = test system: A498 renal
[53] = test system: MOLT-4 leukemia
[54] = test system: NCI-H226 lung
[55] = test system: OVCAR-4 ovarian
[56] = test system: SK-OV-3 ovarian
[57] = test system: SNB-75 CNS
[58] = test system: T-47D breast

CC(C)c1cc(C(C)C)c(Cl)c(Cl)c1O (tested in a mixture with another compound)
TGI [1]: > 100 µM
TGI [2]: > 100 µM
TGI [3]: 57.6 µM
TGI [4]: 40.1 µM
TGI [5]: 47 µM
TGI [6]: > 100 µM
TGI [7]: 39.8 µM
TGI [8]: > 100 µM
TGI [9]: 53.7 µM
TGI [10]: 64.5 µM
TGI [11]: > 100 µM
TGI [12]: > 100 µM
TGI [13]: 36 µM
TGI [14]: > 100 µM
TGI [15]: 27.9 µM
TGI [16]: 38.5 µM
TGI [17]: 58.8 µM
TGI [18]: 81.1 µM
TGI [19]: 37.9 µM
TGI [20]: 58.1 µM
TGI [21]: > 100 µM
TGI [22]: > 100 µM
TGI [23]: 52.9 µM
TGI [24]: 54.6 µM
TGI [25]: 46 µM
TGI [26]: 46.1 µM
TGI [27]: > 100 µM
TGI [28]: > 100 µM
TGI [29]: 35.8 µM
TGI [30]: > 100 µM
TGI [31]: 60.1 µM
TGI [32]: > 100 µM
TGI [33]: 76.1 µM
TGI [34]: 40.7 µM
TGI [35]: > 100 µM
TGI [36]: 32.5 µM
TGI [37]: 42.4 µM
TGI [38]: 40.9 µM
TGI [39]: 49 µM
TGI [40]: 46.5 µM
TGI [41]: 42.4 µM
TGI [42]: 24.3 µM
TGI [43]: 54.4 µM
TGI [44]: 42.8 µM
TGI [45]: 63.4 µM
TGI [46]: 82.1 µM
TGI [47]: 54.3 µM
TGI [48]: > 100 µM
TGI [49]: 39.3 µM
TGI [50]: 44 µM
TGI [51]: 57.7 µM

C=CCCCCCCCCC(=O)ON(Cc1ccc(O)c(OC)c1)C(=O)C(F)(F)F
TGI [1]: > 100 µM
TGI [52]: > 100 µM
TGI [2]: > 100 µM
TGI [3]: > 100 µM
TGI [6]: > 100 µM
TGI [7]: > 100 µM
TGI [8]: > 100 µM
TGI [9]: > 100 µM
TGI [10]: > 100 µM
TGI [11]: > 100 µM
TGI [12]: > 100 µM
TGI [13]: > 100 µM
TGI [14]: > 100 µM
TGI [15]: > 100 µM
TGI [16]: > 100 µM
TGI [17]: > 100 µM
TGI [18]: > 100 µM
TGI [19]: > 100 µM
TGI [20]: > 100 µM
TGI [21]: > 100 µM
TGI [22]: > 100 µM
TGI [23]: > 100 µM
TGI [24]: > 100 µM
TGI [25]: > 100 µM
TGI [26]: > 100 µM
TGI [53]: > 100 µM
TGI [54]: > 100 µM
TGI [27]: > 100 µM
TGI [28]: > 100 µM
TGI [30]: > 100 µM
TGI [55]: > 100 µM
TGI [32]: > 100 µM
TGI [33]: > 100 µM
TGI [35]: > 100 µM
TGI [36]: > 100 µM
TGI [37]: > 100 µM
TGI [38]: > 100 µM
TGI [39]: > 100 µM
TGI [41]: > 100 µM
TGI [42]: > 100 µM
TGI [56]: > 100 µM
TGI [43]: > 100 µM
TGI [44]: > 100 µM
TGI [57]: > 100 µM
TGI [45]: > 100 µM
TGI [46]: > 100 µM
TGI [58]: > 100 µM
TGI [47]: > 100 µM
TGI [48]: > 100 µM
TGI [49]: > 100 µM
TGI [50]: > 100 µM
TGI [51]: 68 µM
